Drawing on ChEMBL document CHEMBL4825745, “Novel Substituted Piperidine-2,6-dione Derivatives for Treating Sickle Cell Disease and β-Thalassemia” (ACS Med Chem Lett, 2021), this text covers AC50 for six compounds.

The structures appear in SMILES notation.

For this experiment, the target named is Protein Wiz (Homo sapiens, UniProt O95785). The experiment in a line: Induction of HiBit-tagged WIZ protein degradation expressed in HEK293T cells assessed as reduction in WIZ protein level incubated for 18 hrs by luminescence based assay. The format is cell-based. A general note: HiBiT is a short tag that completes a luciferase, so light tracks the accessible tagged protein.
Sequence of Protein Wiz (O95785 whole entry): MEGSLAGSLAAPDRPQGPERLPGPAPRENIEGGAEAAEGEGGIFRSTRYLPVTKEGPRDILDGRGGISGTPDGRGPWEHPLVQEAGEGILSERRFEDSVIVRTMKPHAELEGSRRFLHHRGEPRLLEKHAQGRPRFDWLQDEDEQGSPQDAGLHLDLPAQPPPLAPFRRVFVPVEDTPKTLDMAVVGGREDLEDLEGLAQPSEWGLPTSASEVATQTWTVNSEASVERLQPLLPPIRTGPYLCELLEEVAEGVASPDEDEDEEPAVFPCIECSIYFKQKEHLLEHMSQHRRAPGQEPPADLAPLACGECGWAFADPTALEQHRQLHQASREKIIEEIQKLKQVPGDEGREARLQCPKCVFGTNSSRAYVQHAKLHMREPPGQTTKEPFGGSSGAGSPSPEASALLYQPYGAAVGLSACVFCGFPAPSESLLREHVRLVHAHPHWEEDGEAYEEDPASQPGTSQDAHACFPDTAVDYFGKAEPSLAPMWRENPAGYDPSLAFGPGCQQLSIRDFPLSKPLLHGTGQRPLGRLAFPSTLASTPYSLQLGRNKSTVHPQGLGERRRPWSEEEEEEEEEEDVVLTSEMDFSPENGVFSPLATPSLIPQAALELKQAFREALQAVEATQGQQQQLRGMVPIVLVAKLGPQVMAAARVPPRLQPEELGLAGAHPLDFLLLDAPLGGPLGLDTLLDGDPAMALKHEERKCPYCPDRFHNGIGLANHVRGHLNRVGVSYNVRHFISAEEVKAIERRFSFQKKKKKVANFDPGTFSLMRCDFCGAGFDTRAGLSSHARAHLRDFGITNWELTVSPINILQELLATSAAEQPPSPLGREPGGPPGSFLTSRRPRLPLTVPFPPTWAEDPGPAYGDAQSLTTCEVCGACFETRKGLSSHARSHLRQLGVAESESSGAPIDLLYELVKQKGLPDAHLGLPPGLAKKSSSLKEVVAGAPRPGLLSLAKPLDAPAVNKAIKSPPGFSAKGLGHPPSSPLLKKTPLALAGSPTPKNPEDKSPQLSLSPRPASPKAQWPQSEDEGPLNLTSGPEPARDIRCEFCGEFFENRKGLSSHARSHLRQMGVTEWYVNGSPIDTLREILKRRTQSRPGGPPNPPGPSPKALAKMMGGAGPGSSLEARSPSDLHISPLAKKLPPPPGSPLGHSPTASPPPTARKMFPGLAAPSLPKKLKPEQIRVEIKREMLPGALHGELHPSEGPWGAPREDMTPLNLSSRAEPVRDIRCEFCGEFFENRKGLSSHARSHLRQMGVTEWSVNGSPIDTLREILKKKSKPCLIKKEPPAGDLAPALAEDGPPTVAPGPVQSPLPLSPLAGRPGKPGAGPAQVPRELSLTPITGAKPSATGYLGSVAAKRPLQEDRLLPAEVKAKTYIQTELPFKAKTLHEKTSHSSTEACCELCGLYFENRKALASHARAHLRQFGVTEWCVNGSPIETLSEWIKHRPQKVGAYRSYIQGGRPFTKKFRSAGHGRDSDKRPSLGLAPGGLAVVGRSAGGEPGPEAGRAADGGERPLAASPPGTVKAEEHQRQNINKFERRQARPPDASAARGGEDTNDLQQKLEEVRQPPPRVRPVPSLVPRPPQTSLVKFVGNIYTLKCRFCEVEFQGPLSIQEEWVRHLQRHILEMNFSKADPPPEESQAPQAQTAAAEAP
Turning to `O=C1CCC(N2Cc3cc(OC[C@H]4CCCCN4Cc4ccc(N5CCCCC5)cc4)ccc3C2=O)C(=O)N1` (stereo partly specified), the AC50 (in general, the midpoint of the concentration-response curve, whichever way the signal moves) turned out to be 0.37 nM.

For `O=C1CCC(N2Cc3cc(OC[C@H]4CCCCN4Cc4ccc(C5=CCOCC5)cc4)ccc3C2=O)C(=O)N1` (stereo partly specified), the AC50 came to 0.35 nM.

Regarding `O=C1CCC(N2Cc3cc(OC[C@H]4CCCCN4Cc4ccc(C5(C(F)(F)F)CC5)cc4)ccc3C2=O)C(=O)N1` (stereo partly specified), the AC50 was 0.22 nM.

As for `O=C1CCC(N2Cc3cc(OC[C@H]4CCCCN4Cc4ccc5c(c4)OC(F)(F)O5)ccc3C2=O)C(=O)N1` (stereo partly specified), the AC50 worked out at 0.47 nM.

Turning to `CC(C)(C)c1ccc(CN2CCCC[C@@H]2COc2ccc3c(c2)CN(C2CCC(=O)NC2=O)C3=O)cc1` (stereo partly specified), the half-maximal activity concentration (AC50) is 0.083 nM.

As for `COc1ccc(CN2CCCC[C@@H]2COc2ccc3c(c2)CN(C2CCC(=O)NC2=O)C3=O)c(OC)c1` (stereo partly specified), the AC50 worked out at 0.52 nM.
